How the values were obtained:
15-PGDH in A549 cells = biological target: T1, 15-PGDH in A549 cells (Homo sapiens, UniProt P15428); assay: A549 cellular 15-PGDH assay (PGE2 accumulation, HTRF); type: cell-based; conditions: interleukin-stimulated, inhibitor 24 hrs, PGE2 by competitive HTRF, read-out: A549 Cell Assay IC50
T1 construct: endogenous in cells; host or cells: A549
T1 sequence (P15428 1-266): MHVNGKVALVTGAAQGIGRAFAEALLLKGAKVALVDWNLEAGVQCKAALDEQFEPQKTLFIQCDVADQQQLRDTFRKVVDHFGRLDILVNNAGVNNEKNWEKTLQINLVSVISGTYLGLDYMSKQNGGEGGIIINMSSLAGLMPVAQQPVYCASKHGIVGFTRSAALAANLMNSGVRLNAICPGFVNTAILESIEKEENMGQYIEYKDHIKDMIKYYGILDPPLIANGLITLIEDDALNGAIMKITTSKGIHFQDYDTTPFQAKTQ
Text: This assay was used for the quantification of IL-13 induced Native Prostaglandin E2 (PGE2) produced by A549 cells (epithelial cells from lung carcinoma) in cell culture supernatants. […] PGE2 was detected in a competitive HTRF assay by using anti PGE2 antibody labeled with Europium cryptate, and PGE2 labeled with […]. The PGE2 present in the sample competes with the binding between the two HTRF detection solutions (reagents) and thereby prevents FRET from occurring. The specific signal is inversely proportional to the PGE2 concentration. From this binding data, IC50 values were calculated.

[1] = biological target: T2, human recombinant 15-PGDH (Homo sapiens, UniProt P15428); assay: Recombinant 15-PGDH enzymatic inhibition assay (PGDH-Lumi, NADH signal); type: biochemical; conditions: recombinant 15-PGDH; 15 min pre-incubation, 60 min reaction with PGE2 and NAD+, NADH signal
T2 sequence (P15428 1-266): T1 sequence (P15428 1-266)
How it was run: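 Recombinant 15-PGDH pre-incubated 15 min at room temperature with compound (22 concentrations, 2-fold dilutions) in 50 mM Tris pH 7.5, 0.01% Tween-20, […].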

Structure (SMILES) | IC50 (15-PGDH in A549 cells) | IC50 [1]
CC[C@@H](O)c1cc2c(C3CC3)cc(-c3cnc4nn(C)cc4c3)nc2s1 (single isomer, unassigned) [Compound B13R] | 3.2 nM | 0.57 nM
CCC[C@@H](O)c1cc2ccc(-c3cnc4nn(C)cc4c3)cc2s1 (single isomer, unassigned) [Compound B54R] | 11.8 nM | 4.11 nM
CC(O)c1cc2ccc(-c3cnc4nn(C)cc4c3)nc2s1 (stereo not shown) [Compound B25, 1-(6-(2-methyl-2H-pyrazolo[3,4-b]pyridin-5-yl)thieno[2,3-b]pyridin-2-yl)ethanol] | 16.4 nM | 5.85 nM
Cn1cc2cc(-c3ccc4c(N)c([C@@H](O)C5CC(F)(F)C5)sc4n3)cnc2n1 (single isomer, unassigned) [Compound B95S] | 9.46 nM | 6.43 nM
Cc1cn2ccc(-c3ccc4cc([C@@H](O)C5CC(F)(F)C5)sc4n3)cc2n1 (single isomer, unassigned) [Compound B55S] | 11.8 nM | 2.64 nM
Cn1ncc2cc(-c3ccc4cc([C@H](O)C5CCOCC5)sc4n3)ccc21 (single isomer, unassigned) [Compound B34R] | 39.8 nM | 12.4 nM
Cc1c([C@H](O)C2CCOCC2)sc2nc(-c3cnc4c(c3)nnn4C)ccc12 (single isomer, unassigned) [Compound B89R] | 4.82 nM | 1.77 nM
Cn1cc2cc(-c3ncc4nc([C@]5(O)C[C@@H](C(F)F)C5)sc4n3)cnc2n1 [Compound C109C] | 8.48 nM | 3.35 nM
Cn1nnc2cc(-c3ncc4cc([C@]5(O)C[C@@](C)(C#N)C5)sc4n3)cnc21 (single isomer, unassigned) [Compound C98C, cis-3-hydroxy-1-methyl-3-(2-(3-methyl-3H-[1,2,3]triazolo[4,5-b]pyridin-6-yl)thieno[2,3-d]pyrimidin-6-yl)cyclobutanecarbonitrile] | 18.7 nM | 8.69 nM
Cn1cc2cc(-c3ccc4cc(C(O)C5CCCC5)sc4c3)cnc2n1 (stereo not shown) [Compound B58, cyclopentyl(6-(2-methyl-2H-pyrazolo[3,4-b]pyridin-5-yl)-1-benzothiophen-2-yl)methanol] | 2.5 nM | 0.488 nM

The next molecules have a lower IC50 (15-PGDH in A549 cells) than those just listed; values first:

IC50 (15-PGDH in A549 cells) | IC50 [1] | Structure (SMILES)
0.113 nM | 0.584 nM | CO[C@]1(C)C[C@@](O)(c2cc3ccc(-c4cnc5nn(C)cc5c4)nc3s2)C1 [Compound C59C, cis-3-methoxy-3-methyl-1-(6-(2-methyl-2H-pyrazolo[3,4-b]pyridin-5-yl)thieno[2,3-b]pyridin-2-yl)cyclobutanol]
0.667 nM | 0.494 nM | Cn1cc2cc(-c3ccc4cc([C@H](O)C56CC(C5)C6)sc4n3)cnc2n1 (single isomer, unassigned) [Compound B87R]
1.26 nM | 0.771 nM | Cn1cc2cc(-c3ncc4cc([C@]5(O)C[C@@H](C(F)F)C5)sc4n3)cnc2n1 [Compound C80C, cis-3-(difluoromethyl)-1-(2-(2-methyl-2H-pyrazolo[3,4-b]pyridin-5-yl)thieno[2,3-d]pyrimidin-6-yl)cyclobutanol]
0.16 nM | 0.727 nM | CO[C@]1(C)C[C@](O)(c2cc3ccc(-c4cnc5nn(C)cc5c4)nc3s2)C1 (single isomer, unassigned) [Compound C59T, trans-3-methoxy-3-methyl-1-(6-(2-methyl-2H-pyrazolo[3,4-b]pyridin-5-yl)thieno[2,3-b]pyridin-2-yl)cyclobutanol]
1.46 nM | 0.429 nM | Cn1cc2cc(-c3ccc4sc([C@]5(O)C[C@@H](OC(F)(F)F)C5)cc4n3)cnc2n1 [Compound C117C, cis-1-(5-(2-methyl-2H-pyrazolo[3,4-b]pyridin-5-yl)thieno[3,2-b]pyridin-2-yl)-3-(trifluoromethoxy)cyclobutanol]
0.16 nM | 0.424 nM | Cn1cc2cc(-c3ccc4cc([C@H](O)C5COC5)sc4n3)cnc2n1 (single isomer, unassigned) [Compound B28R]
1.78 nM | 12.3 nM | CCC[C@H](O)c1cc2ccc(-c3cnc4nn(C)cc4c3)nc2s1 (single isomer, unassigned) [Compound B27S]
